Results on eight molecules are retold here after patent US6734180B1, “NF-κB inhibitor comprising an indan derivative as an active ingredient” (Daiichi Suntory Pharma Co., Ltd., priority 1998, dated 2004).

The subject of series [1] is human inducible NO synthase (hiNOS) gene. Kind of series: Expression of the human inducible NO synthase (hiNOS) gene, firefly luciferase reporter in A5 cells. The conditions noted are these: IL-1β (1 ng/ml)+TNF-α (500 ng/ml), firefly luciferase activity 24 hours later, read-out: IL-1β + TNF-α stimulation IC50 (inhibitory effect on the expression of the hiNOS gene). It counts as cell-based. As to the method: Experiment 1. Effect of compounds on the expression of the human inducible NO synthase (hiNOS) gene
The experiment was carried out using A5 cells (human lung carcinoma cell line A549 cells (ATCC, CCL185) stably transfected with NOS53+F) previously reported by the inventors (Nunokawa, Y. et al., (1997) Biochem. Biophys. Res. Commun. 233, 523-526).
Compounds described in Examples were added to A5 cells simultaneously with IL-1β (1 ng/ml)+TNF-α (500 ng/ml) to investigate the inhibitory effect on the firefly luciferase activity 24 hours later.
The activity of firefly luciferase was measured based on the protocol by the Luciferase Assay System (Promega, U.S.A.).
The inhibitory effect of the compounds claimed in the present invention on the expression of the hiNOS gene was expressed as IC50 value in Table 1.
On the technique in general: Reporter assays use an easily measured gene product as a stand-in for the process of interest.

For series [2], the system named is sea pansy luciferase gene (pRL-SV40) under the control of SV40 promoter. Kind of series: Sea pansy luciferase under SV40 promoter (NF-κB independent) in A5 cells. It counts as cell-based, human. The note with it: no stimulation, compound at 1 μg/ml for 4 hours. The protocol: The activity of sea pansy luciferase was measured based on the protocol by the Dual Luciferase Reporter Assay System (Promega, U.S.A.).

The test system of series [3] is TNF-α production. The series is described as follows: TNF-α production of LPS-stimulated RAW264.7 cells (ELISA). It counts as cell-based, mouse. The note with it: RAW264.7 cells stimulated with LPS for 4 hours. The source says:
(§1) Experiment 3. Effect of lipopolysaccharide (LPS) stimulation on NO and TNF-α production
(§2) When various cells are stimulated with LPS, NV-κB is activated which results in the expression and induction of proteins represented by NOS, TNF-α, and thereby the cells start to produce NO and/or TNF-α.
(§3) The inhibitory effect of these compounds was expressed as IC50 value in Table 3.
A general note: ELISA stands for enzyme-linked immunosorbent assay.

Series [4] concerns NO production. The series is described as follows: NO production of LPS-stimulated RAW264.7 cells (Griess' method). It counts as cell-based, mouse. The conditions noted are these: LPS (10 μg/ml), 24 hours after the stimulation.
Text: as §1, §2
To determine the production of NO indirectly, the Griess' method utilizing a diazo reaction is useful (Green, L. C. et al., (1982) Anal. Biochem, 126, 131-138). In the Griess' method, the Griess' reagent prepared by mixing naphthylethylenediamine and sulfanilic acid is reacted with NO2^− ion in the culture medium, and the color development thereof is measured by an absorbance at 540 nm.
as §3
(Griess reagent forms a coloured azo dye with nitrite.)

The subject of series [5] is NF-κB. The series is described as follows: NF-κB-controlled firefly luciferase in A549/NF-κBLuc cells. It counts as cell-based, human. The protocol: Experiment 2. Effect of compounds on A549 cells (A549/NF-κBLuc) stably transfected with luciferase plasmid (pNFκB-Luc) having the NF-κB regulatory sequence
Using lipofectamine (Lifetech oriental K.K., Tokyo), pNFκB-Luc (Stratagene, U.S.A.) were cotransfected with pSV2neo (Clontech, U.S.A.) into A549 cells according to the conventional method, and A549/NF-κBLuc stably transfected with pNFκB-Luc were selected by adding G418 sulfate ((1 mg/ml) Lifetech Oriental K.K.) to the culture medium.
NF-κB inhibiting activity was expressed as IC50 values in Table 2.

Series [6] relates to rat models of carageenin foot pad edema. The series is described as follows: Carrageenin foot pad edema in rats. It counts as in vivo. The conditions noted are these: male Wistar rats, 1 mg/kg intraperitoneally 15 minutes before carrageenin. The protocol:
FIG. 1 is a graph showing the result of Experiment 4 in which the compounds of Example 32 were studied using rat models of carageenin foot pad edema. Each point represents the mean±SE (n=5). Dunnett's test was carried out and the results are shown by * p<0.05 and ** p<0.01.
An aqueous solution of 1% λ-carrageenin (Wako Pure Chemical Industries) in physiological saline (0.1 ml) was intradermally administered to the pad of the left paw of 6-week old male Wistar rats weighing 149 g to 171 g, and changes in the volume of the paw were measured for indicated period. The test compound (0.3, 1 mg/kg) described in Example 32 was suspended in a solution of 0.5% hydroxypropyl cellulose in physiological saline (EPC, Nippon Soda Co., Ltd.) and was intraperitoneally given 15 minutes before the administration of carrageenin. For the control group, a solution of 0.5% HPC in physiological saline was used.

Read-outs that look alike come from different tables or passages of the source.

In the case of `c1ccc2c(c1)CC(Nc1ncnc3nc[nH]c13)C2` [Example 37, 6-(2-indanylamino)purine], the melting point (usually the temperature of the solid-liquid transition) was not below 300 °C.
The molecule `Cc1noc2ncnc(NC3Cc4ccccc4C3)c12` [Example 10, 3-methyl-4-(2-indanylamino)isoxazolo[5,4-d]pyrimidine] gave a melting point of 208 °C.
As for `Cc1csc2ncnc(NC3Cc4ccc(Oc5ccccc5)cc4C3)c12` (stereo not shown) [Example 25, 4-(5-phenoxyindan-2-yl)amino-5-methylthieno[2,3-d]pyrimidine], the IC50 – broadly, the concentration that gives 50% inhibition – in series [1] (Homo sapiens) was 150 nM.
The same measure, in the same setting: to `c1ccc2c(c1)CC(Nc1ncnc3occc13)C2` [Example 6, 4-(2-indanylamino)furo[2,3-d]pyrimidine] belongs 800 nM.
As for `Cc1csc2ncnc(NC3Cc4ccc(C(=O)NCc5ccccc5)cc4C3)c12` (stereo not shown) [Example 31, N-benzyl-2-(5-methylthieno[2,3-d]pyrimidine-4-yl)amino-5-indan carboxamide], the IC50 was found to be 2.4 nM in series [1] (Homo sapiens), 48 nM in series [3] (Mus musculus) and 24 nM in series [4] (Mus musculus). The “influence on the activity of sea pansy luciferase” value in series [2] is given as “had no influence”.
As for `Cc1csc2ncnc(NC3Cc4ccccc4C3)c12` [Example 1, 4-(2-indanylamino)-5-methylthieno[2,3-d]pyrimidine], the IC50 in series [1] (Homo sapiens) stood at 280 nM; in series [3] (Mus musculus), 1100 nM; in series [4] (Mus musculus), 710 nM.
For the molecule `Cc1csc2ncnc(NC3Cc4ccc(C(=O)N5CCOCC5)cc4C3)c12` (stereo not shown) [Example 32, 2-[5-methylthieno[2,3-d]pyrimidine-4-yl]aminoindan-5-carboxylic acid morpholinamide], the IC50 in series [1] was 51 nM; in series [5] (IL-1β (1 ng/ml) for 4 hours, read-out: IL-1β stimulation IC50 (NF-κB inhibiting activity)), 51 nM; in series [5] (TNF-α (500 ng/ml) for 4 hours, read-out: TNF-α stimulation IC50 (NF-κB inhibiting activity)), 89 nM; in series [3] it was 51 nM; in series [4] it was 25 nM. Moreover, the “edema formation at 2 hours” value in series [6] (2 hours) is “significantly suppressed edema formation”. In addition, the “edema suppression at 3 hours and after” value in series [6] (3 hours and after) was “high rate of edema suppression”. Moreover, in series [2], the “influence on the activity of sea pansy luciferase” value was “had no influence”.
Take `CC(C)c1csc2ncnc(NC3Cc4ccccc4C3)c12` [Example 22, 4-(2-indanylamino)-5-isopropylthieno[2,3-d]pyrimidine]: the IC50 in series [1] (Homo sapiens) came out at 64 nM; in series [3] (Mus musculus), 160 nM; in series [4] (Mus musculus), 64 nM.
